Test results published in patent US6413956B1, “Substituted 4-oxo-quinoline-3-carboxamides” (Neurogen Corporation, priority 1999, dated 2002).

A melting point of 162 to 164 °C was found for `CCOc1ccc2[nH]cc(C(=O)NCc3ccc(CN(Cc4ccccc4)Cc4ccccc4)cc3)c(=O)c2c1` [compound 82, N-[4-(Dibenzylaminomethyl)benzyl] 6-ethoxy-4-oxo-1,4-dihydro-quinoline-3-carboxamide] in this work.
A melting point of 129 to 131 °C was found for `CCOc1ccc2[nH]cc(C(=O)NCc3ccc(CN(C)Cc4ccccc4)cc3)c(=O)c2c1` [compound 98, N-{4-[(N-Benzyl-N-methylamino)methyl]benzyl} 6-ethoxy-4-oxo-1,4-dihydroquinoline-3-carboxamide] in this work.
A melting point of 140 to 144 °C was found for `Cc1ccc2[nH]cc(C(=O)NCc3cccc(CN4CCOCC4)c3)c(=O)c2c1` [compound 127, N-[3-(4-Morpholinylmethyl)benzyl]-6-methyl-4-oxo-1,4-dihydroquinoline-3-carboxamide] in this work.
A melting point of 211 to 212 °C was found for `COc1ccc(CNC(=O)c2c[nH]c3ccccc3c2=O)cc1OC` [compound 12, N-(3,4-Dimethoxybenzyl) 4-oxo-1,4-dihydro-quinoline-3-carboxamide] in this work.
A melting point of 191 to 193 °C was found for `CCOc1ccc2[nH]cc(C(=O)NC3CCCCC3)c(=O)c2c1` [compound 46, N-Cyclohexyl 6-ethoxy-4-oxo-1,4-dihydro-quinoline-3-carboxamide] in this work.
A melting point of 219 to 221 °C was found for `CCCNC(=O)c1c[nH]c2ccc(OCC)cc2c1=O` [compound 55, N-Propyl 6-ethoxy-4-oxo-1,4-dihydro-quinoline-3-carboxamide] in this work.
A melting point of 207 °C was found for `O=C(NCc1ccc2c(c1)OCO2)c1c[nH]c2ccccc2c1=O` [compound 11, N-Piperonyl 4-oxo-1,4-dihydro-quinoline-3-carboxamide] in this work.
A melting point of 205 to 207 °C was found for `CCCCNC(=O)c1c[nH]c2c(F)cccc2c1=O.Cl` in this work.
A melting point of 190 to 191 °C was found for `CCCCNC(=O)c1c[nH]c2ccc(OCC)cc2c1=O` [compound 53, N-Butyl 6-ethoxy-4-oxo-1,4-dihydro-quinoline-3-carboxamide] in this work.
A melting point of 203 to 208 °C was found for `Cl.O=C(NCc1cccc(CN2CCOCC2)c1)c1c[nH]c2ccccc2c1=O` in this work.
A melting point of 137 to 139 °C was found for `CCOc1ccc2[nH]cc(C(=O)NCc3ccc(CN(C)CCc4ccccc4)cc3)c(=O)c2c1` [compound 99, N-{4-[(N-Methyl-N-phenethylamino)methyl]benzyl} 6-ethoxy-4-oxo-1,4-dihydroquinoline-3-carboxamide] in this work.
In the case of `CCNCc1cccc(CNC(=O)c2c[nH]c3ccc(Cl)cc3c2=O)c1` [compound 28, N-[3-(Ethylaminomethyl)benzyl] 6-chloro-4-oxo-1,4-dihydro-quinoline-3-carboxamide], the melting point is reported as 148 °C (dec.).
A melting point of 141 to 142 °C was found for `CCOCCCNC(=O)c1c[nH]c2ccccc2c1=O` [compound 17, N-(3-Ethoxypropyl) 4-oxo-1,4-dihydro-quinoline-3-carboxamide] in this work.
A melting point of 221 to 222 °C was found for `CCOc1ccc2[nH]cc(C(=O)NCc3ccccn3)c(=O)c2c1` [compound 51, N-[(2-Pyridyl)methyl] 6-ethoxy-4-oxo-1,4-dihydro-quinoline-3-carboxamide] in this work.
A melting point of 222 to 224 °C was found for `CCOc1ccc2[nH]cc(C(=O)NCc3cccnc3)c(=O)c2c1` [compound 52, N-[(3-Pyridyl)methyl] 6-ethoxy-4-oxo-1,4-dihydro-quinoline-3-carboxamide] in this work.
A melting point of 173 to 177 °C was found for `CCOc1ccc2[nH]cc(C(=O)NCc3cccc(CN4CCOCC4)c3)c(=O)c2c1` [compound 117, N-[3-(4-Morpholinylmethyl)benzyl]-6-ethoxy-4-oxo-1,4-dihydroquinoline-3-carboxamide] in this work.
A melting point of 151 to 153 °C was found for `COCc1ccc2[nH]cc(C(=O)NCc3cccc(CN4CCOCC4)c3)c(=O)c2c1` [compound 105, N-{3-[(4-Morpholinyl)methyl]benzyl} 6-methoxymethyl-4-oxo-1,4-dihydroquinoline-3-carboxamide] in this work.
A melting point of 168 to 171 °C was found for `CCOc1ccc2[nH]cc(C(=O)NCc3ccc(CN4CCCC4)cc3)c(=O)c2c1` [compound 103, N-{4-[(1-Pyrrolidinyl)methyl]benzyl} 6-ethoxy-4-oxo-1,4-dihydroquinoline-3-carboxamide] in this work.
A melting point of 209 to 211 °C was found for `CCOc1ccc2[nH]cc(C(=O)NCc3ccccc3)c(=O)c2c1` [compound 39, N-Benzyl 6-ethoxy-4-oxo-1,4-dihydro-quinoline-3-carboxamide] in this work.
A melting point of 235 to 240 °C was found for `O=C(NCc1cccs1)c1c[nH]c2ccccc2c1=O` [compound 13, N-[(2-Thienyl)methyl] 4-oxo-1,4-dihydro-quinoline-3-carboxamide] in this work.
A melting point of 273 to 276 °C was found for `O=C(NCc1ccc(F)cc1)c1c[nH]c2ccc(Cl)cc2c1=O` [compound 73, N-4-Fluorobenzyl 6-chloro-4-oxo-1,4-dihydroquinoline-3-carboxamide] in this work.
A melting point of 163 to 164 °C was found for `CCOc1ccc2[nH]cc(C(=O)NCCCOC(C)C)c(=O)c2c1` [compound 43, N-[(3-Isopropoxy)propyl] 6-ethoxy-4-oxo-1,4-dihydro-quinoline-3-carboxamide] in this work.
A melting point of 235 to 237 °C was found for `Cl.O=C(NCc1ccccc1)c1c[nH]c2c(F)cccc2c1=O` in this work.
With `CN(C)Cc1ccc(CNC(=O)c2c[nH]c3ccc(Cl)cc3c2=O)cc1.Cl` the melting point was 198 °C (dec.).
For `CN(C)Cc1cccc(CNC(=O)c2c[nH]c3ccc(Cl)cc3c2=O)c1.Cl`, the melting point was 178 °C (dec.).
A melting point of 144 to 146 °C was found for `CCOc1ccc2[nH]cc(C(=O)NCc3cccc(CN(C)Cc4ccccc4)c3)c(=O)c2c1` [compound 108, N-{3-[(N-Benzyl-N-methylamino)methyl]benzyl}-6-ethoxy-4-oxo-1,4-dihydroquinoline-3-carboxamide] in this work.
In the case of `CCOc1ccc2[nH]cc(C(=O)NCc3ccc(CN(C)C)cc3)c(=O)c2c1.Cl`, the melting point is reported as 222 to 225 °C (dec.).
A melting point of 123 to 127 °C was found for `CCOc1ccc2[nH]cc(C(=O)NCc3ccc(CNCCN4CCOCC4)cc3)c(=O)c2c1` [compound 83, N-{4-[[2-(4-Morpholinyl)ethyl]aminomethyl]benzyl} 6-ethoxy-4-oxo-1,4-dihydro-quinoline-3-carboxamide] in this work.
A melting point of 157 to 159 °C was found for `CCCCNC(=O)c1c[nH]c2ccc(COC)cc2c1=O` [compound 34, N-Butyl 6-methoxymethyl-4-oxo-1,4-dihydro-quinoline-3-carboxamide] in this work.
A melting point of 279 to 281 °C was found for `CCOc1ccc2[nH]cc(C(=O)NC)c(=O)c2c1` [compound 58, N-Methyl 6-ethoxy-4-oxo-1,4-dihydro-quinoline-3-carboxamide] in this work.
In the case of `CCNCc1ccc(CNC(=O)c2c[nH]c3ccccc3c2=O)cc1.Cl`, the melting point is reported as 252 °C (dec.).
A melting point of 203 to 205 °C was found for `CCOc1ccc(CNC(=O)c2c[nH]c3ccccc3c2=O)cc1` [compound 16, N-(4-Ethoxybenzyl) 4-oxo-1,4-dihydro-quinoline-3-carboxamide] in this work.
A melting point of 186 to 188 °C was found for `COc1ccc2[nH]cc(C(=O)NCc3cccc(CN(C)Cc4ccccc4)c3)c(=O)c2c1` [compound 130, N-[3-(N-Benzyl-N-methylaminomethyl)benzyl]-6-methoxy-4-oxo-1,4-dihydroquinoline-3-carboxamide] in this work.
A melting point of 203 to 205 °C was found for `CCOc1ccc2[nH]cc(C(=O)NCc3ccsc3)c(=O)c2c1` [compound 59, N-[(3-Thienyl)methyl] 6-ethoxy-4-oxo-1,4-dihydro-quinoline-3-carboxamide] in this work.
A melting point of 180 to 183 °C was found for `CCCCCNC(=O)c1c[nH]c2ccc(OCC)cc2c1=O` [compound 54, N-Pentyl 6-ethoxy-4-oxo-1,4-dihydro-quinoline-3-carboxamide] in this work.
A melting point of 129 to 132 °C was found for `CCOc1ccc2[nH]cc(C(=O)NCc3ccc(CN(CC)Cc4ccccc4)cc3)c(=O)c2c1` [compound 97, N-{4-[(N-Benzyl-N-ethylamino)methyl]benzyl} 6-ethoxy-4-oxo-1,4-dihydroquinoline-3-carboxamide] in this work.
A melting point of 214 to 216 °C was found for `CCOc1ccc2[nH]cc(C(=O)NCC(C)C)c(=O)c2c1` [compound 56, N-[(2-Methyl)propyl] 6-ethoxy-4-oxo-1,4-dihydro-quinoline-3-carboxamide] in this work.
A melting point of 237 to 238 °C was found for `CCOc1ccc2[nH]cc(C(=O)NCc3ccccc3F)c(=O)c2c1` [compound 49, N-(2-Fluorobenzyl) 6-ethoxy-4-oxo-1,4-dihydro-quinoline-3-carboxamide] in this work.
A melting point of 120 to 122 °C was found for `Cc1nc(Cc2ccc(CNC(=O)c3c[nH]c4ccc(F)cc4c3=O)cc2)c[nH]1.Cl` in this work.
A melting point of 177 to 180 °C was found for `Cl.O=C(NCc1ccc(CN2CCOCC2)cc1)c1c[nH]c2ccccc2c1=O` in this work.
A melting point of 95 to 97 °C was found for `CCOCCCNC(=O)c1c[nH]c2ccc(COC)cc2c1=O` [compound 33, N-[(3-Ethoxy)propyl] 6-methoxymethyl-4-oxo-1,4-dihydro-quinoline-3-carboxamide] in this work.
A melting point of 181 to 182 °C was found for `CCOc1ccc2[nH]cc(C(=O)NCC3CCCO3)c(=O)c2c1` (stereo not drawn) [compound 44, N-[(2-Tetrahydrofuranyl)methyl] 6-ethoxy-4-oxo-1,4-dihydro-quinoline-3-carboxamide] in this work.
A melting point of 226 to 228 °C was found for `CCOc1ccc2[nH]cc(C(=O)NCc3ccc4c(c3)OCO4)c(=O)c2c1` [compound 47, N-Piperonyl 6-ethoxy-4-oxo-1,4-dihydro-quinoline-3-carboxamide] in this work.
A melting point of 179 to 181 °C was found for `CCOCCCNC(=O)c1c[nH]c2ccc(OCC)cc2c1=O` [compound 42, N-[(3-Ethoxy)propyl] 6-ethoxy-4-oxo-1,4-dihydro-quinoline-3-carboxamide] in this work.
A melting point of 193 to 195 °C was found for `O=C(NCc1ccco1)c1c[nH]c2ccccc2c1=O` [compound 9, N-[(2-Furanyl)methyl] 4-oxo-1,4-dihydro-quinoline-3-carboxamide] in this work.
A melting point of 205 to 209 °C was found for `O=C(NCC1CCCO1)c1c[nH]c2ccccc2c1=O` (stereo not drawn) [compound 1, N-tetrahydrofurfuryl 4-oxo-1,4-dihydro-quinoline-3-carboxamide] in this work.
A melting point of 223 to 224 °C was found for `CCOc1ccc2[nH]cc(C(=O)NCc3cccs3)c(=O)c2c1` [compound 41, N-[(2-Thienyl)methyl] 6-ethoxy-4-oxo-1,4-dihydro-quinoline-3-carboxamide] in this work.
A melting point of 180 to 181 °C was found for `CC(C)CCNC(=O)c1c[nH]c2ccccc2c1=O` [compound 4, N-Isoamyl 4-oxo-1,4-dihydro-quinoline-3-carboxamide] in this work.
